Key:
[1] = Microsomal stability assay, rat; assay type: in vitro ADME; settings: metabolic stability, rat liver microsomes 0.5 mg/mL, substrate 3 uM
How it was run: (§1)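 Liver microsomes at 0.5 mg/mL protein in 100 mM KPO4 buffer, incubated with 3 uM compound and NADPH-regenerating system, run in duplicate. Samples taken at 2, 12, 25, 45 and 65 min and quenched in MeOH/ACN/water before analysis.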

[2] = Microsomal stability assay, dog; assay type: in vitro ADME; settings: metabolic stability, dog liver microsomes 0.5 mg/mL, substrate 3 uM
How it was run: as §1

Human Nav1.2 = target: T1, Human Nav1.2 (Homo sapiens, UniProt Q99250); experiment: Nav1.2 use-dependent block, whole-cell voltage clamp; assay type: cell-based; settings: use-dependent block 10 Hz, read-out: NAv1.2*-CHAN TEST-UDB-10 HZ-
T1 construct: expressed in transfected cells
Source text: Wild-type (WT) cDNA stably transfected in Chinese hamster ovary (CHO) cells is used to record INa. Unless otherwise noted, all reagents are purchased from Sigma-Aldrich (St Louis, Mo., U.S.A.).
Whole-cell voltage-clamp recordings are used to measure the biophysical properties of WT. Briefly, the pipette solution consists of (in mM) 110 CsF, 10 NaF, 20 CsCl, 2 EGTA, 10 HEPES, with a pH of 7.35 and osmolarity of 300 mOsmol/kg. The bath (control) solution contains in (mM): 145 NaCl, 4 KCl, 1.8 CaCl2, 1 MgCl2, 10 dextrose, 10 HEPES, with a pH of 7.35 and osmolarity of 310 mOsmol/kg. Cells are allowed to stabilize for 10 min after establishment of the whole-cell configuration before current is measured. Series resistance is compensated 90% to assure that the command potential is reached within microseconds with a voltage error <2 mV. Leak currents are subtracted by using an online P/4 procedure and all currents are low-pass Bessel filtered at 5 kHz and digitized at 50 kHz.
Tonic block of peak current is measured using a step to −10 mV (20 ms) from a holding potential of −120 mV (0.2 Hz). Use-dependent block of peak current is measured during pulse number 300 of a pulse train (−10 mV, 5 ms, 300 pulses, 10 Hz or 25 Hz) from a holding potential of −120 mV. Two sequential pulse train stimulations are averaged to obtain mean current traces for each recording condition, which are then used for offline subtraction and analysis.
For use-dependent studies, cells are stimulated with depolarizing pulse trains (−10 mV, 5 ms, 300 pulses, 10 and 25 Hz) from a holding potential of −120 mV. Currents are then normalized to the peak current recorded in response to the first pulse in each frequency train. For tonic block studies, peak current is evaluated in response to a 20 ms depolarization to −10 mV (0.2 Hz). Data analysis is performed using Clampfit 9.2 (Axon Instruments, Union City, Calif., U.S.A), Excel 2002 (Microsoft, Seattle, Wash., U.S.A.), and OriginPro 7.0 (OriginLab, Northampton, Mass., U.S.A) software. Results are presented as mean±SEM.
A stock solution of 10 mM compound of Formula I is prepared in 0.1 M HCl or DMSO. A fresh dilution of the compound of Formula I in the bath solution is prepared every experimental day and the pH is readjusted to 7.35 as necessary. The final DMSO concentration was kept at 0.1% in all solutions. Direct application of the perfusion solution to the clamped cell is achieved using the Perfusion Pencil system (Automate, Berkeley, Calif.). Direct cell perfusion is driven by gravity at a flow rate of 350 μL/min using a 250 micron tip. This system sequesters the clamped cell within a perfusion stream and enables complete solution exchange within 1 second. The clamped cell is perfused continuously starting immediately after establishing the whole-cell configuration. Control currents are measured during control solution perfusion.
Solutions are perfused for three minutes prior to current recordings to allow equilibrium (tonic) drug block. Tonic block of peak currents is measured from this steady-state condition. Three sequential current traces are averaged to obtain a mean current for each recording. The mean current traces are utilized for offline analysis. Use-dependent block of peak current is measured during pulse number 300 of the pulse train, (−10 mV, 5 ms, 300 pulses, 10 Hz) from a holding potential of −120 mV. Two sequential pulse train stimulations are averaged to obtain mean current traces for each recording condition, which are then used for offline subtraction and analysis. Where appropriate, concentration inhibition curves are fit with the Hill equation: I/Imax=1/[1+10̂(log IC50−I)*k], where IC50 is the concentration that produces half inhibition and k is the Hill slope factor.

T1 sequence (Q99250 whole entry): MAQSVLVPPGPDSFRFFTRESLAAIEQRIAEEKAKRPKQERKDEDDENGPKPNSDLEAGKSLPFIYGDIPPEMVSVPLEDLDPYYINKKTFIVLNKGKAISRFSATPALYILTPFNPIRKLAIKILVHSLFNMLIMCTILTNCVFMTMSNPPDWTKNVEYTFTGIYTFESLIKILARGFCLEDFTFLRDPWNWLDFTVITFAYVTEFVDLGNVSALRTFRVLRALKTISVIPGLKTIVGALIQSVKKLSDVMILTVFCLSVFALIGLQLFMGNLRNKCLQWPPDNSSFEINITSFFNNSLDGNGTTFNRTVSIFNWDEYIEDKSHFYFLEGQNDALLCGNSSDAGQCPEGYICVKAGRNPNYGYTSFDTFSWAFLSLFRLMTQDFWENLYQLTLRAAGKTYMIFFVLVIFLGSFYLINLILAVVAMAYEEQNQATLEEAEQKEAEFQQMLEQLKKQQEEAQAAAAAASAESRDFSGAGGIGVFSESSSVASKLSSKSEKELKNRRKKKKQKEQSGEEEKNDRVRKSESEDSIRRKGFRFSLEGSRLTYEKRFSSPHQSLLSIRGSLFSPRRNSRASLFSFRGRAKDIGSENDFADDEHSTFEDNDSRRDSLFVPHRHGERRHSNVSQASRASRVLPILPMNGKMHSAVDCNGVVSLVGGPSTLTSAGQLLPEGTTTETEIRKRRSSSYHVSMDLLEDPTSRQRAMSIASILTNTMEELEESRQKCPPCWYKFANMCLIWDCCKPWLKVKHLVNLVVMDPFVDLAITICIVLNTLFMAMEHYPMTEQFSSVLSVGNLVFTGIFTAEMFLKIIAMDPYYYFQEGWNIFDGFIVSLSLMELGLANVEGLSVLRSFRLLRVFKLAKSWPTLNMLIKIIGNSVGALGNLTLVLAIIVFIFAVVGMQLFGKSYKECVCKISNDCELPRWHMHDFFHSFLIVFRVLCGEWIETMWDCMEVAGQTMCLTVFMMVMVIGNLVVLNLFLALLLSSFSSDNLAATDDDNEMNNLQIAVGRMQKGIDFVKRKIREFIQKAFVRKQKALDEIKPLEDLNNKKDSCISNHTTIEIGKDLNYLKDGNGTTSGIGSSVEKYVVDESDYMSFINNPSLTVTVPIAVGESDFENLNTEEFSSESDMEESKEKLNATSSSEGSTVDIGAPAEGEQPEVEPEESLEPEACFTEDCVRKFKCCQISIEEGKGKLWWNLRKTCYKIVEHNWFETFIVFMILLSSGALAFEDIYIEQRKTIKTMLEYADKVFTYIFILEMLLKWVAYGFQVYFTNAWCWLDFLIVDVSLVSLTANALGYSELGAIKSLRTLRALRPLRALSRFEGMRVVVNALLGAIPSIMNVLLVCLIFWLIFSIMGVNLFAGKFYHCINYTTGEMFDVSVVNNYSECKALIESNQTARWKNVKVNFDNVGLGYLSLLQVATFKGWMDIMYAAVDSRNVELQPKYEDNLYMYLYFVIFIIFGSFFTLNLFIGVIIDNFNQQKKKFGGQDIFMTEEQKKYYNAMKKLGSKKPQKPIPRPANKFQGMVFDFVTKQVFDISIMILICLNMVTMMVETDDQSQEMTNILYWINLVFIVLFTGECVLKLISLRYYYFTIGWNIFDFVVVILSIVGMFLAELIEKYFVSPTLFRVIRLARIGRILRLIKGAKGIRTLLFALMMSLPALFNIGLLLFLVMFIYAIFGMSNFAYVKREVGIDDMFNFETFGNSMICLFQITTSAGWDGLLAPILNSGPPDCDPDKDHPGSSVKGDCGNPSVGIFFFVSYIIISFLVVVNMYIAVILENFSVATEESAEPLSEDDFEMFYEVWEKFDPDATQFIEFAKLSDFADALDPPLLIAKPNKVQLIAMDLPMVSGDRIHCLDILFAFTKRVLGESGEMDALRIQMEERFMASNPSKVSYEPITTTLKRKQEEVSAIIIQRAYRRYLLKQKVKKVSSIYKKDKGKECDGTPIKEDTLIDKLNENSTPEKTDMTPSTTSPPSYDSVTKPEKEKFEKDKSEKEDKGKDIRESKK

MS Rat THalf [1] [min] | MS Dog THalf [2] [min] | inhibition at 1 µM (Human Nav1.2) [%] | Structure (SMILES)
121 | 169 | -8.2 | Cc1ncc(Cn2nnc3ccc(-c4ccc(OC(F)(F)F)cc4)cc3c2=O)o1 [II-95, 3-((2-methyloxazol-5-yl)methyl)-6-(4-(trifluoromethoxy)phenyl)benzo[d][1,2,3]triazin-4(3H)-one]
249 | 303 | -3.2 | Cc1noc(Cn2nnc3ccc(-c4ccc(OC(F)(F)F)cc4)cc3c2=O)n1 [II-3, 3-((3-methyl-1,2,4-oxadiazol-5-yl)methyl)-6-(4-(trifluoromethoxy)phenyl)benzo[d][1,2,3]triazin-4(3H)-one]
